These results are taken from patent US9604974B2, “Compounds as modulator of JAK-STAT pathway, methods and applications thereof” (UNIVERSITY OF MYSORE, priority 2015, dated 2017).

The subject of one experiment is HepG2 cells. In words: MTT anti-proliferative assay, HepG2. The class given is cell-based. Particulars: Homo sapiens; HepG2 cells after 72 hours, MTT. The method, then:
The anti-proliferative activity of Formula I compounds are studied on HepG2 cells using MTT assay. Briefly, the cells (2.5×10^4/ml) are incubated in triplicate in a 96-well plate in the presence or absence of different concentrations of compounds in a final volume of 0.2 ml up to 72 hours at 37° C. Thereafter, 20 μl MTT solution (5 mg/ml in PBS) is added to each well. After 2 hours of incubation at 37° C., 0.1 ml lysis buffer (20% SDS, 50% dimethyl-formamide) is added; incubation is continued overnight at 37° C.; and the optical density (OD) at 570 nm is measured by Tecan plate reader.
(In general: Formazan colour is commonly taken as a measure of viable cells.)
As for `CCCCc1nc(Cl)c(C2NCC(c3ccc(OC)cc3)C3(CCCCC3)O2)[nH]1` (stereo not drawn) [Compound 2, 2-(2-butyl-5-chloro-3H-imidazol-4-yl)-5-(4-methoxy-phenyl)-1-oxa-3-aza spiro(5,5) undecane], 38.7 µM corresponded to half-maximal inhibition (IC50).

Regarding `CCCCc1nc(Cl)c(C2NCC(c3ccc(OC)cc3)C3(CCCCC3)O2)n1Cc1ccc(-c2ccccc2C#N)cc1` (stereo not drawn) [Compound 3, 2-(2-butyl-5-chloro-3-(4-(2-cyanophenyl)1-benzyl)-imidazol-4-yl)-5-(4-methoxy-phenyl)-1-oxa-3-aza spiro(5,5) undecane], the IC50 (as a rule, the concentration that inhibits the measured activity by half) is 14.3 µM.

The compound `COc1ccc(C2CNC(c3ccc(Br)cc3)OC23CCCCC3)cc1` (stereo not drawn) [Compound 4, 2-(4-Bromophenyl)-5-(4-methoxy-phenyl)-1-oxa-3-aza spiro(5,5) undecane] came in with a half-maximal inhibitory concentration (IC50) of 37.1 µM.

In the case of `COc1ccc(C2CNC(c3c(-c4ccccc4)[nH]c4ccccc34)OC23CCCCC3)cc1` (stereo not drawn) [Compound 5, 2-(2-phenylindyl)-5-(4-methoxy-phenyl)-1-oxa-3-aza spiro(5,5) undecane], the half-inhibitory concentration (IC50) stood at 9.8 µM.

The compound `COc1ccc(C2CNC(c3c[nH]c4ccccc34)OC23CCCCC3)cc1` (stereo not drawn) [Compound 6, 2-(indyl)-5-(4-methoxy-phenyl)-1-oxa-3-aza spiro(5,5) undecane] gave an IC50 of 28.5 µM.

In the case of `CCCCc1nc(Cl)c(C2NCC(c3ccc(OC)cc3)C3(CCCCC3)O2)n1Cc1ccc(Oc2ccccc2)cc1` (stereo not drawn) [Compound 7], half-maximal inhibition (IC50) required 15.8 µM.

In turn, `COc1ccc(C2CNC(c3coc4ccccc4c3=O)OC23CCCCC3)cc1` (stereo not drawn) [Compound 8, 3-[5-(4-Methoxy-phenyl)-1-oxa-3-aza-spiro[5.5]undec-2-yl]-chromen-4-one] registered a half-inhibitory concentration (IC50) of 28.8 µM.

Compound `COc1ccc(C2CNC(c3c(C)[nH]c4ccccc34)OC23CCCCC3)cc1` (stereo not drawn) [Compound 9, 2-(2-methylindyl)-5-(4-methoxy-phenyl)-1-oxa-3-aza spiro(5,5) undecane] registered a half-maximal inhibitory concentration (IC50) greater than 50 µM.

As to `COc1ccc(C2CNC(c3c(Cl)cccc3Cl)OC23CCCCC3)cc1` (stereo not drawn) [Compound 10, 2-(2,6-dichlorophenyl)-5-(4-methoxy-phenyl)-1-oxa-3-aza spiro(5,5) undecane], it took 42.4 µM to reach half-maximal inhibition (IC50).

As to `COc1ccc(C2CNC(c3ccc4c(c3)CCO4)OC23CCCCC3)cc1` (stereo not drawn) [Compound 11, 2-(2,3-Dihydro-benzofuran-5-yl)-5-(4-methoxy-phenyl)-1-oxa-3-aza-spiro[5.5]undecane], the IC50 was greater than 50 µM.

`COc1ccc(C2CN(Cc3ccc(-c4ccccc4C#N)cc3)C(c3c(Cl)cccc3Cl)OC23CCCCC3)cc1` (stereo not drawn) [Compound 12] had an IC50 greater than 50 µM.

In turn, `COc1ccc(C2CNC(c3ccc(N(C)C)cc3)OC23CCCCC3)cc1` (stereo not drawn) [Compound 13, 2-(4-dimethylaminophenyl)-5-(4-methoxy-phenyl)-1-oxa-3-aza spiro(5,5) undecane] registered a half-inhibitory concentration (IC50) greater than 50 µM.

A further experiment concerns phospho-STAT3 (Y705). In words: Western blot of constitutive phospho-STAT3 (Y705) in HepG2. Particulars: HepG2, 6 hours. The class given is cell-based, human. The method, then: FIG. 2 depicts the suppression of phospho-STAT3 by compound 1 (CIMO) in a dose dependent manner [A]. HepG2 cells (5×10^5/mL) are treated with the indicated concentrations of CIMO for 6 hours, after which whole-cell extracts are prepared and resolved on SDS-PAGE gel, electrotransferred onto nitrocellulose membrane, and probed for phospho-STAT3. The same blot is stripped and reprobed with STAT3 antibody to verify equal protein loading. […] HepG2 cells (5×10^5/mL) are treated with the indicated concentrations of AG490 for about 6 hours, after which Western Blotting is done as described for [A]. [C] depicts the suppression of phospho-STAT3 levels by Compound 1 (CIMO) in a time-dependent manner. HepG2 cells (5×10^5/mL) are treated with 10 μMol/L CIMO for the indicated times, after which Western blotting is done as described for [A]. [D] depicts that compound 1 (CIMO) has no effect on phospho-STAT3 (Ser-727) and STAT3 protein expression. HepG2 cells (5×10^5/mL) are treated with 10 μMol/L CIMO for the indicated times, after which Western Blotting is done as described for [A] and membrane is probed using antibodies against phospho-STAT3 (Ser-727) and STAT3. […] HepG2 cells (1×10^5/mL) are incubated with or without 10 μMol/L CIMO for about 6 hours and then analyzed for the intracellular distribution of STAT3 by immunocytochemistry. The same slides are counterstained for nuclei with Hoechst (50 ng/mL) for about 5 minutes and analyzed under an fluorescencemicroscope. […] HepG2 cells (5×10^5/mL) are treated with 10 μMol/L CIMO, after which whole-cell extracts are prepared, resolved in SDS-PAGE, electrotransferred onto nitrocellulose membrane, and probed with phospho-Src, phospho-JAK1 and phospho-JAK2 antibodies. The same blots are stripped and reprobed with Src, JAK1 and JAK2 antibodies to verify equal protein loading. [G] depicts the suppression of STAT3 DNA binding ability by Compound 1 (CIMO) in HepG2 cells. HepG2 cells are treated with 10 μMol/L CIMO for the indicated time, nuclear extracts are prepared, and 5 μg of the nuclear extract protein is used for ELISA-based DNA-binding assay.
CIMO is tested towards the inhibition of constitutive activation of STAT3 in HepG2 cells by Western Blotting via antibodies recognising phospho-STAT3 (Y705). For detection of phospho-proteins, CIMO treated whole-cell extracts are lysed in lysis buffer [20 mM Tris (pH 7.4), 250 mM NaCl, 2 mM Ethylenediaminetetraacetic acid (pH 8.0), 0.1% Triton-X-100, 0.01 mg/ml aprotinin, 0.005 mg/ml leupeptin, 0.4 mM phenylmethanesulfonylfluoride, and 4 mM NaVO4). Lysates are then spun at 14,000 rpm for about 10 minutes to remove insoluble material and resolved on SDS gel. After electrophoresis, the proteins are electrotransferred to a nitrocellulose membrane, blocked with 5% non-fat milk, and probed with various antibodies (1:1000) overnight at about 4° C. The blot is washed, exposed to HRP-conjugated secondary antibodies for about 1 hour, and finally examined by chemiluminescence (ECL; GE Healthcare, Little Chalfont, Buckinghamshire, UK).
Background: Immunoblotting shows a protein as a band on a membrane.
`N#C/C(=C/c1ccc(O)c(O)c1)C(=O)NCc1ccccc1` [AG490, reference compound]: the “concentration of maximum inhibition of phospho-STAT3” value came to 200 µM.

Still in this experiment, the particulars now being: HepG2, Western blot, dose and time course.
Regarding `N#C/C(=C/c1ccc(O)c(O)c1)C(=O)NCc1ccccc1` [AG490, reference compound], the “levels of phospho-STAT3 (Y705)” value is on record as “decreases the phosphorylation of STAT3 in a dose-dependent manner”.

Still in this experiment, the particulars now being: HepG2, with 10 μMol/L CIMO, about 4 hours.
On to sodium pervanadate [reference compound], for which the “effect on CIMO-induced inhibition of STAT3 activation” value is given as “prevents CIMO-induced inhibition of STAT3 activation”.
